In patent US7048939B2, “Methods for the inhibition of neointima formation” (The Board of Trustees of the Leland Stanford Junior …, priority 2001, dated 2006):

How the values were obtained:
[1] = system: infra-renal abdominal aorta; test: Morphological analysis of intima/media ratios 28 days after in vivo stent implantation; set-up: species or system New Zealand White rabbits; conditions: 28 days after stent implantation, stent-based local release from microspheres, 0.25% cholesterol diet
Procedure: Microsphere Preparation. Biodegradable poly(lactic-co-glycolic-acid)-polyethylene glycol (PLGA/PEG) microspheres were prepared as a modification of previously described techniques. […] Additionally, a pH buffer of 7.4 was incorporated to limit local pH changes in order to stabilize incorporated drugs and render the microspheres more biocompatible. During the microsphere manufacturing process, 2.0 mg of the angiogenesis inhibitor angiostatin (Calbiochem, La Jolla, Calif.) in […] phosphate buffered saline was added to the polymer solution. Control microspheres (blank microspheres) containing polymer and buffer without any drug were also prepared. Stents were prepared as above. In Vivo Stent Implantation. Age-matched adult male New Zealand White rabbits weighing 3.8–4.2 kg were used in accordance to NIH and institutional guidelines (n=6 animals per group). Under general anesthesia, an arteriotomy at the femoral artery was performed and a 5 Fr introducing sheath was placed. Under fluoroscopic guidance, aseptically prepared channeled stents filled with blank or angiostatin microspheres were deployed in the infra-renal abdominal aorta. Stents were post-dilated at 8 atm with a 5 mm angioplasty balloon (Jupiter, Cordis, Miami, Fla.) to a final lumen size of 125% above the baseline with care taken to ensure that […] were present within the stent segment. Pre- and post-deployment digital subtraction angiograms were recorded for the blank procedural control and angiostatin treatment groups. The rabbits were fed a 0.25% cholesterol diet after the intervention. Early 7 day follow up (n=3 per group) or late 28 day follow-up (n=3 per group) animals underwent total-body perfusion-fixation as previously described with immediate excision of the aortic segment containing stent. The 7 day aortic specimens were excised longitudinally and stents were removed. The resulting aortic segments were divided into two equal subsegments. One subsegment of each underwent fixation in 10% neutral buffered formalin and embedded in paraffin-for light microscopic and morphologic analysis. The remaining subsegment of each specimen was snap frozen for molecular assay. The 28 days aortic specimens were fixed in 10% neutral buffered formalin and were embedded in PolyBed (Polysciences, Warrington, Pa.) for light microscopic and morphologic analysis. Morphological Analysis of Intima/Media (I/M) Ratios. The seven day analysis consisted of thick (5 μm) cross sections of the aortic wall were obtained from the paraffin-embedded specimens (n=9 sections per group). An elastic von Gieson-Masson trichrome or Elastica van Gieson-Hematoxylin double stain was performed for light microscopic analysis. For the 28 day specimen analysis (n=3 animals per group), each plastic-embedded aorta with stents was cut into five pieces longitudinally equal lengths. These pieces were stained by modified Verhoff elastic staining. Five cross sectional images of the stained aorta were obtained (n=15 sections per group) from one side of plastic pieces. […] Using Image Pro Plus software (Media Cybernetics, Silver Spring, Md.), the cross-sectional area of the intima and the media were determined by blinded observers. The ratio of intima area to media area subsequently tabulated for each, with the results presented as Table 2. Mean, standard error, and significance were determined.

[2] = system: infra-renal abdominal aorta; test: Local plaque stability parameters: macrophage infiltrate and endothelial density (CD31); assay type: in vivo, New Zealand White rabbits; conditions: 7 days after stent implantation
Procedure: In Vivo Stent Implantation. Age-matched adult male New Zealand White rabbits weighing 3.8–4.2 kg were used in accordance to NIH and institutional guidelines (n=6 animals per group). Under general anesthesia, an arteriotomy at the femoral artery was performed and a 5 Fr introducing sheath was placed. Under fluoroscopic guidance, aseptically prepared channeled stents filled with blank or angiostatin microspheres were deployed in the infra-renal abdominal aorta. Stents were post-dilated at 8 atm with a 5 mm angioplasty balloon (Jupiter, Cordis, Miami, Fla.) to a final lumen size of 125% above the baseline with care taken to ensure that […] were present within the stent segment. Pre- and post-deployment digital subtraction angiograms were recorded for the blank procedural control and angiostatin treatment groups. […]
Evaluation of Local Plaque Stability Parameters: Macrophage Infiltrate and Endothelial Density. Cross sections at the 7 day time point evaluated above were obtained (two per segment) from each vessel and incubated with a primary monoclonal antibody to rabbit macrophage (clone RAM-11, 1/800 dilution, DAKO, Carpinteria, Calif.). The number of positive cells per cross section was counted by a blinded observer. […] Mean and standard error were tabulated for each group with significance determined as before and p values as reported.

Molecule	Intima to media ratio (ratio of intimal area to medial area, mean ± SE) [1]	Number of plaque microvessels (CD31) per cross section (mean ± SE) [2]	Number of cross-sectional macrophages (mean ± SE) ([2]; RAM-11 positive cells per cross section)
CCC[C@H](N[C@@H](C)C(=O)N1[C@H](C(=O)O)C[C@@H]2CCCC[C@@H]21)C(=O)O [ATIIr, perindoprilate, reference compound]	1.730 ± 0.090	–	–
CCNCCN(CC)N(O)N=O [NO, N-Ethyl-2-(1-ethyl-2-hydroxy-2-nitrosohydrazino) ethanamine, reference compound]	1.338 ± 0.051	–	–
CN1CCC[C@H]1c1cccnc1 [Nicotine, S-3-(1-methyl-2-pyrrolidinyl)pyridine, reference compound]	1.377 ± 0.060	–	–
AAT: elastase inhibitor alpha-1-antitrypsin (Calbiochem)	1.322 ± 0.060	–	–
Angiostatin	1.610 ± 0.050	0.111 ± 0.111	34.889 ± 3.948 P = 0.0011
FGF: acidic FGF (Calbiochem) loaded with endotoxin-free heparin as a stabilizer	1.634 ± 0.051	–	–
TGFβ1: transforming growth factor β1 (Oncogene Research)	1.803 ± 0.053	–	–
Fas ligand: pro-apoptotic factor, death domain receptor ligand (Oncogene Research) (protein, UniProt P48023 130-281, looked up) Tumor necrosis factor ligand …: QIGHPSPPPEKKELRKVAHLTGKSNSRSMPLEWEDTYGIVLLSGVKYKKGGLVINETGLYFVYSKVYFRGQSCNNLPLSHKVYMRNSKYPQDLVMMEGKMMSYCTTGQMWARSSYLGAVFNLTSADHLYVNVSELSLVNFEESQTFFGLYKL	1.356 ± 0.053	–	–
